From PubChem BioAssay AID330 (DTP/NCI, 2004)
Values joined by “and” are separate entries in the source; they are usually repeats but may differ in a detail not shown here. Identical values can stand only once. Toxic doses and inconclusive results are not listed. How the source made its calls: active means survival T/C of 150% or more; inactive means T/C below 125% in these data. Square brackets hold non-standard residues; d marks the D form. Peptide text beside a SMILES is read from it. * marks the point of attachment. ξ: configuration not given here. Cbz = O=C(OCc1ccccc1)*; ξNva = CCCC(N)C(=O)O

System: P388 leukemia ip, CD2F1 mice, survival T/C
Assay: NCI In Vivo Anticancer Drug Screen. Data for tumor model P388 Leukemia (intraperitoneal) in CD2F1 (CDF1) mice
Conditions: endpoint: median survival time, higher = longer survival
Procedure, shortened: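 Mice carrying the transplanted tumor received test compound or vehicle. Survival was recorded in each group, and the value is the treated-group measurement divided by that of the vehicle-treated control group.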

[1] = dose: 50.0 mg/kg/injection, schedule: Q01DX005 (ip), vehicle: saline with Tween-80
[2] = dose: 100.0 mg/kg/injection, schedule: Q01DX005 (ip), vehicle: saline with Tween-80
[3] = dose: 50.0 mg/kg/injection, schedule: Q01DX005 (ip), vehicle: Klucel (hydroxypropylcellulose) (HPC)
[4] = dose: 100.0 mg/kg/injection, schedule: Q01DX005 (ip), vehicle: Klucel (hydroxypropylcellulose) (HPC)
[5] = dose: 200.0 mg/kg/injection, schedule: Q01DX005 (ip), vehicle: Klucel (hydroxypropylcellulose) (HPC)
[6] = dose: 50.0 mg/kg/injection, schedule: Q01DX009 (ip), vehicle: saline with Tween-80
[7] = dose: 100.0 mg/kg/injection, schedule: Q01DX009 (ip), vehicle: saline with Tween-80
[8] = dose: 200.0 mg/kg/injection, schedule: Q01DX009 (ip), vehicle: saline with Tween-80
[9] = dose: 100.0 mg/kg/injection, schedule: Q04DX003 (ip), vehicle: saline with Tween-80
[10] = dose: 200.0 mg/kg/injection, schedule: Q04DX003 (ip), vehicle: saline with Tween-80

Measured: T/C

C=CC(C)(C)c1c2c(c(OC)c3ccc(=O)oc13)C=CC(C)(C)O2
inactive: dose: 25.0 mg/kg/injection, schedule: Q01DX005 (ip), vehicle: saline with Tween-80 105 % of control | [1] 99 % of control and 94 % of control | [2] 96 % of control

O=C(c1ccc(-c2ccccc2)cc1)C(Br)C(Br)c1ccccc1 (stereo unspecified)
inactive: dose: 25.0 mg/kg/injection, schedule: Q01DX009 (ip), vehicle: other 90 % of control | dose: 100.0 mg/kg/injection, schedule: Q01DX009 (ip), vehicle: other 90 % of control | dose: 200.0 mg/kg/injection, schedule: Q01DX009 (ip), vehicle: other 101 % of control | dose: 400.0 mg/kg/injection, schedule: Q01DX009 (ip), vehicle: other 116 % of control

O=S(=O)(OC1=CCCCCC1)C(F)(F)F
inactive: dose: 50.0 mg/kg/injection, schedule: Q01DX009 (ip), vehicle: olive oil, sesame oil, peanut oil 106 % of control | dose: 100.0 mg/kg/injection, schedule: Q01DX009 (ip), vehicle: olive oil, sesame oil, peanut oil 91 % of control | dose: 200.0 mg/kg/injection, schedule: Q01DX009 (ip), vehicle: olive oil, sesame oil, peanut oil 114 % of control

C=C(C)COC(=O)C1C2CC(C3OC23)C1C(=O)OCC(=C)C (stereo unspecified)
inactive: [3] 102 % of control | [4] 104 % of control | [5] 100 % of control

N#C/C(=C/c1cccs1)c1cccs1
inactive: dose: 60.0 mg/kg/injection, schedule: Q01DX005 (ip), vehicle: saline with Tween-80 100 % of control | dose: 120.0 mg/kg/injection, schedule: Q01DX005 (ip), vehicle: saline with Tween-80 106 % of control | dose: 240.0 mg/kg/injection, schedule: Q01DX005 (ip), vehicle: saline with Tween-80 109 % of control

COC(=O)C1=CO[C@@H](C)[C@@H]2CN3CCc4c([nH]c5cc(OC)ccc45)[C@@H]3C[C@H]12
inactive: [1] 96 % of control | [2] 92 % of control

CCOC(=O)c1ccc(NC(Cc2ccccc2)=NC(C)(C)C)cc1
inactive: [6] 98 % of control | [7] 94 % of control | [8] 88 % of control

CCCC(NC(=O)CNC(=O)OCc1ccccc1)C(=O)O (stereo not drawn) (Cbz-Gly-[ξNva]-OH)
inactive: [3] 104 % of control | [4] 98 % of control

CC(O)CN(Cc1c(O)ccc2ccccc12)CC(C)O (stereo unspecified)
inactive: [1] 108 % of control | [2] 110 % of control | dose: 200.0 mg/kg/injection, schedule: Q01DX005 (ip), vehicle: saline with Tween-80 99 % of control

CCCCCCCCCCCCCCCC[n+]1cccc(C(=O)NCO)c1
inactive: dose: 6.25 mg/kg/injection, schedule: Q01DX009 (ip), vehicle: saline with Tween-80 100 % of control | dose: 12.5 mg/kg/injection, schedule: Q01DX009 (ip), vehicle: saline with Tween-80 104 % of control | dose: 25.0 mg/kg/injection, schedule: Q01DX009 (ip), vehicle: saline with Tween-80 104 % of control

Cc1ccc(N=C(N)NC#N)cc1
inactive: [6] 100 % of control | [7] 90 % of control | [9] 91 % of control | [8] 90 % of control | [10] 87 % of control

CCCCCCCCCCCCCCCCCCN(CCCCCCCCCCCCCCCCCC)c1ccc(/C=C/c2ccnc3ccccc23)cc1
inactive: dose: 25.0 mg/kg/injection, schedule: Q01DX009 (ip), vehicle: Klucel (hydroxypropylcellulose) (HPC) 104 % of control | dose: 50.0 mg/kg/injection, schedule: Q01DX009 (ip), vehicle: Klucel (hydroxypropylcellulose) (HPC) 95 % of control | dose: 100.0 mg/kg/injection, schedule: Q01DX009 (ip), vehicle: Klucel (hydroxypropylcellulose) (HPC) 95 % of control | dose: 200.0 mg/kg/injection, schedule: Q01DX009 (ip), vehicle: Klucel (hydroxypropylcellulose) (HPC) 104 % of control

O=C1CCCC2=C1CC1=C(CCCC1=O)N2
inactive: [3] 94 % of control | [4] 96 % of control | [5] 90 % of control

COC(=O)CCCC/C=C\CCCCCCC1C=CCC1 (stereo unspecified)
inactive: dose: 100.0 mg/kg/injection, schedule: Q01DX001 (ip), vehicle: saline 100 % of control | dose: 200.0 mg/kg/injection, schedule: Q01DX001 (ip), vehicle: saline 101 % of control | dose: 400.0 mg/kg/injection, schedule: Q01DX001 (ip), vehicle: saline 101 % of control

CN(C)CCN(C=O)CCN(C)C
inactive: dose: 50.0 mg/kg/injection, schedule: Q01DX005 (ip), vehicle: saline 95 % of control | dose: 100.0 mg/kg/injection, schedule: Q01DX005 (ip), vehicle: saline 88 % of control | dose: 200.0 mg/kg/injection, schedule: Q01DX005 (ip), vehicle: saline 101 % of control

COC1(OC)OC(c2ccc([N+](=O)[O-])cc2)=C(c2ccc([N+](=O)[O-])cc2)OC1(OC)OC
inactive: dose: 60.0 mg/kg/injection, schedule: Q01DX005 (ip), vehicle: Klucel (hydroxypropylcellulose) (HPC) 90 % of control | dose: 120.0 mg/kg/injection, schedule: Q01DX005 (ip), vehicle: Klucel (hydroxypropylcellulose) (HPC) 87 % of control

CC1=NN(C(=O)c2cccnc2)C(=O)C1N=Nc1ccc(S(=O)(=O)Nc2nccs2)cc1 (stereo unspecified)
inactive: [9] 101 % of control | [10] 99 % of control | dose: 400.0 mg/kg/injection, schedule: Q04DX003 (ip), vehicle: saline with Tween-80 95 % of control

O=S(=O)(O)CC(O)CN(CCO)CCO (stereo unspecified)
inactive: dose: 60.0 mg/kg/injection, schedule: Q01DX005 (ip), vehicle: saline 108 % of control | dose: 120.0 mg/kg/injection, schedule: Q01DX005 (ip), vehicle: saline 102 % of control | dose: 240.0 mg/kg/injection, schedule: Q01DX005 (ip), vehicle: saline 100 % of control

CNC(=O)NCCCCCCNC(=O)NC
inactive: [3] 99 % of control and 95 % of control | [4] 87 % of control and 95 % of control | [5] 89 % of control

O=c1[nH]cc(B(O)O)c(=O)[nH]1
inactive: dose: 100.0 mg/kg/injection, schedule: Q01DX009 (ip), vehicle: saline 106 % of control | dose: 200.0 mg/kg/injection, schedule: Q01DX009 (ip), vehicle: saline 113 % of control | dose: 400.0 mg/kg/injection, schedule: Q01DX009 (ip), vehicle: saline 113 % of control
